Measurements taken from US10124033B2, “Peptides and methods of use” (BAXALTA INCORPORATED, priority 2014, dated 2018).
Read-outs that look alike come from different tables or passages of the source. Residues, ends and D or L forms follow the SMILES beside them.

Key:
[1] = biological target: T1, Protein S/APC cofactor activity (Homo sapiens, UniProt P07225); assay: CAT assay in pooled normal plasma supplemented with 3 nM APC; format: biochemical; details: 6 pM TF, 15 μM phospholipids
T1 construct: host or cells: plasma
T1 sequence (P07225 41-676 limits assumed): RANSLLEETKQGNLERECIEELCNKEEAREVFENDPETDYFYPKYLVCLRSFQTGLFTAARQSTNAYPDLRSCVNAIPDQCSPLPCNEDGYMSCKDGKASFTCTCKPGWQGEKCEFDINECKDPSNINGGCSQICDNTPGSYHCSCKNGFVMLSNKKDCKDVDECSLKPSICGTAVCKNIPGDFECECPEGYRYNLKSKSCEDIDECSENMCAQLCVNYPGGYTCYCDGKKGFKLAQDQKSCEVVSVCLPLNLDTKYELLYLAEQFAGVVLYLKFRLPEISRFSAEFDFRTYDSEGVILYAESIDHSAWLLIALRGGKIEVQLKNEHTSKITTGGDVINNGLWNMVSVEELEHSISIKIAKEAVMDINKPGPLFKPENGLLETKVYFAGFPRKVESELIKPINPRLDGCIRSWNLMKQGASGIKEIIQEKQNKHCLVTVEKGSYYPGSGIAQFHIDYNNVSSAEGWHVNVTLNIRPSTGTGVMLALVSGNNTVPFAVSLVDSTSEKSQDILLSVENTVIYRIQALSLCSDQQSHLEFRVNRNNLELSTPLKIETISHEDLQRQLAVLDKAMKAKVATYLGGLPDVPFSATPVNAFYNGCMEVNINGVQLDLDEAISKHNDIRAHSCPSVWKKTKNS
Description: Peptides also were tested for improvement of Protein S/APC-dependent thrombin generation in hemophilic plasma using a CAT assay. Protein S enhances the anticoagulation of APC in plasma. The CAT assay quantifies the effect of Protein S on APC-mediated thrombin generation initiated via the extrinsic coagulation pathway (Nicolaes, Blood Coagul. Fibrinolysis, 8:28 (1997)). APC (35 nM) and Protein S (25 nM) was added to Protein 5-depleted plasma, and plasma samples were incubated with high titer heat inactivated anti-human FVIII plasma raised in goat (4490 BU/ml; Baxter BioScience, Vienna, Austria; 50 BU/ml final plasma concentration). Thrombin formation in plasma was followed by calibrated automated thrombography (CAT) in a Fluoroskan Ascent® reader (Thermo Labsystems, Helsinki, Finland) and quantified via the thrombin peak-height. Thrombin generation was determined at high tissue factor (TF) concentration in the absence and in the presence of APC at a concentration that reduces the peak height to 20%. The inhibitory effect of peptides described herein on the APC cofactor activity of Protein S (PS) in plasma was measured in FVIII-inhibited pooled normal plasma supplemented with APC. Complete (100%) Protein S/APC inhibition is the height of the thrombin peak without addition of APC. Lack of (0%) PS/APC inhibition correlates to the thrombin peak-height value with a certain amount of APC. Peptides were ranked by their normalized values in comparison to the mean of wild-type controls including SD at two defined peptide concentrations (EC50 and EC90). […] For the assays, pooled normal plasma was supplemented with 3 nM APC and triggered with 6 pM TF, and 15 μM phospholipids (DOPC/POPS 80/20). Stock APC was diluted with TF-PL-MIX to 24 nM (plasma concentration: 3 nM).

[2] = plasma stability in pooled normal human plasma; format: in vitro ADME; details: pooled normal human plasma, 37° C., 6 hours
Description: (§1) Affinity and activity of all 18 peptides was improved compared to parent JBS2572. […] Activity and stability were improved up to 1.5-fold. Plasma stability was determined in pooled normal human plasma and mouse plasma at 37° C.; exemplary results also are provided in Table 3.

[3] = biological target: T2, human full-length Protein S (Homo sapiens, UniProt P07225); assay: Biacore (surface plasmon resonance) on immobilized Protein S; format: binding; details: Biacore; for koff / kon: Table 3; for Kd: affinity-matured and modified peptides, read-out: KD
T2 construct: using human full-length Protein S and human GAS6
T2 sequence (P07225 41-676 limits assumed): T1 sequence (P07225 41-676 limits assumed)
Description: (§2) Protein S affinity also was determined via Biacore (Biacore 3000 or Biacore T200) using human full-length Protein S and human GAS6. Briefly, 1000 RU of Protein S or GAS6 were immobilized on a CMS chip. In order to probe the kinetics of Protein S binding peptides to Protein S, the peptides were injected at various concentrations in a HBS-buffer containing 3 mM CaCl2 and 1% DMSO to the flow cell and allowed to interact with the immobilized proteins on the sensor chip. The chip could be regenerated with 4 M MgCl2 in HBS-buffer. Sensorgrams were fitted to a Langmuir binding model for the determination of kon and koff and the calculation of KD. Peptides were tested on their specificity to Protein S with peptide binding studies on the anti-target GAS6.

[4] = plasma stability in mouse plasma; format: in vitro ADME; details: 37° C.
Description: as §1

human GAS6 = biological target: T3, human GAS6 (Homo sapiens, UniProt Q14393); assay: Biacore binding to anti-target GAS6; details: 1 μM peptide; sensorgrams reviewed visually
T3 sequence (Q14393 31-678): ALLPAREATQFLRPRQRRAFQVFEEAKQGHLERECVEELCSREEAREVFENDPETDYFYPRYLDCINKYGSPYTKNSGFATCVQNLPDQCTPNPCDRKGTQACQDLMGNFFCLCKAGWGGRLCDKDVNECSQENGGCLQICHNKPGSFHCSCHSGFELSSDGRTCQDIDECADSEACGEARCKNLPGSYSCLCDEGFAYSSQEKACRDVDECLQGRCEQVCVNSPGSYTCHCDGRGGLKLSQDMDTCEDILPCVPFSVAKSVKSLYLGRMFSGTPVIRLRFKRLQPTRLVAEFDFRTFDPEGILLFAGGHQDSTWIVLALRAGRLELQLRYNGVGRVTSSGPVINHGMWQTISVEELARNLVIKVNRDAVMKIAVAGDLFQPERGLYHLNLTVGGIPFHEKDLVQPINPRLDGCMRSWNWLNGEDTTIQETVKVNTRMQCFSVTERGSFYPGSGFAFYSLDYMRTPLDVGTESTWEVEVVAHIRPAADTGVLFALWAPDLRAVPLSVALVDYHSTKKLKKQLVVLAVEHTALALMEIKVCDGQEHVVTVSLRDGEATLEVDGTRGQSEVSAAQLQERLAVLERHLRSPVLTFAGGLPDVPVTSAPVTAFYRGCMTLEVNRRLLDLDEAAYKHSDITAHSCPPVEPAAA
Description: as §2
Interactions with the anti-target GAS6 were measured via Biacore (surface plasmon resonance) (see Example 2). The maximum signal from the interaction of the peptides with human GAS6 was much lower than the signals obtained with Protein S as interaction partner. Kinetic analysis of the low GAS6 binding signals was error prone, and sensorgrams were reviewed visually to estimate anti-target binding. […] The affinity of JBS2572 for the anti-target was at least 10 times less (indeed, at least 150 times less) than the affinity of the peptides for human Protein S. The data provided by this example confirm that peptides described herein specifically bind Protein S.

Row | Molecule | EC50 [1] [nM] | Stability in human plasma; 6 hours [%] [2] [%] | koff ([3]; read-out: koff) [s⁻¹] | kon ([3]; read-out: kon) [M⁻¹ s⁻¹] | Kd [3] [nM] | Stability in mouse plasma; 4 hours [%] [4] [%] | binding to GAS6 (human GAS6) | koff [3] [s⁻¹] | kon [3] [M⁻¹ s⁻¹]
1 | CC(=O)N[C@H](C(=O)NCC(=O)N[C@@H](CC(C)C)C(=O)N[C@H](C(=O)N[C@@H](CO)C(=O)N[C@@H](C)C(=O)NCC(=O)N[C@@H](Cc1c[nH]c2ccccc12)C(=O)N[C@@H](Cc1ccc(O)cc1)C(=O)N[C@@H](CC(=O)O)C(=O)N[C@@H](Cc1ccc(O)cc1)C(=O)N[C@@H](CC(N)=O)C(=O)N[C@@H](Cc1ccccc1)C(=O)N[C@@H](CC(=O)O)C(=O)N[C@H](C(=O)N[C@@H](Cc1ccc(O)cc1)C(=O)N[C@H](C(=O)N[C@@H](CCC(=O)O)C(=O)N[C@@H](Cc1ccccc1)C(=O)N[C@H](C(N)=O)[C@@H](C)O)[C@@H](C)O)[C@@H](C)O)C(C)C)[C@@H](C)O [JBS3188] (Ac-TGLVSAGWYDYNFDTYTEFT-NH2) | 155 | – | – | – | – | – | – | – | –
2 | CC[C@H](C)[C@H](NC(=O)[C@H](C)NC(C)=O)C(=O)N[C@@H](Cc1ccc(O)cc1)C(=O)N[C@H](C(=O)N[C@H](C(=O)N[C@@H](C)C(=O)NCC(=O)N[C@@H](Cc1c[nH]c2ccccc12)C(=O)N[C@@H](Cc1ccc(O)cc1)C(=O)N[C@@H](CC(=O)O)C(=O)N[C@@H](Cc1ccc(O)cc1)C(=O)N[C@@H](CC(N)=O)C(=O)N[C@@H](CC(N)=O)C(=O)N[C@@H](CC(=O)O)C(=O)N[C@H](C(=O)N[C@@H](Cc1ccc(O)cc1)C(=O)N[C@@H](Cc1ccc(O)cc1)C(=O)N[C@@H](CCC(=O)O)C(=O)N[C@@H](Cc1ccccc1)C(=O)N[C@H](C(N)=O)[C@@H](C)O)[C@@H](C)O)[C@@H](C)O)C(C)C [JBS3283] (Ac-AIYVTAGWYDYNNDTYYEFT-NH2) | – | 90 ± 9 | 0.000322 | 735000 | 0.4 | 94 ± 6 | – | – | –
3 | JBS3322: JBS3206 monomer comprising a 40 kD PEG moiety (Ac-EYIVTAGWYDYNKDIYYEFKC-NH2; not fully specified (residue 21)) | – | 131 ± 14 | – | – | – | 91 ± 26 | not to interact | 0.000278 | 78000
4 | CC(=O)N[C@@H](Cc1c[nH]cn1)C(=O)N[C@@H](Cc1c[nH]c2ccccc12)C(=O)N[C@@H](Cc1ccc(O)cc1)C(=O)N[C@H](C(=O)N[C@@H](CO)C(=O)N[C@@H](C)C(=O)NCC(=O)N[C@@H](Cc1c[nH]c2ccccc12)C(=O)N[C@@H](Cc1ccc(O)cc1)C(=O)N[C@@H](CC(=O)O)C(=O)N[C@@H](Cc1ccc(O)cc1)C(=O)N[C@@H](CC(N)=O)C(=O)N[C@@H](CCC(=O)O)C(=O)N[C@@H](CC(=O)O)C(=O)N[C@@H](CCCCN)C(=O)N[C@@H](Cc1ccc(O)cc1)C(=O)N[C@@H](Cc1ccc(O)cc1)C(=O)N[C@@H](CCC(=O)O)C(=O)N[C@@H](Cc1ccccc1)C(=O)N[C@@H](CCC(=O)O)C(N)=O)C(C)C [JBS3306] (Ac-HWYVSAGWYDYNEDKYYEFE-NH2) | – | 84 ± 12 | 0.000402 | 1e+06 | 0.4 | 80 ± 14 | – | – | –
5 | CC[C@H](C)[C@H](NC(=O)[C@H](CC(=O)O)NC(=O)[C@H](CCCCN)NC(=O)[C@H](CC(N)=O)NC(=O)[C@H](Cc1ccc(O)cc1)NC(=O)[C@H](CC(=O)O)NC(=O)[C@H](Cc1ccc(O)cc1)NC(=O)[C@H](Cc1c[nH]c2ccccc12)NC(=O)CNC(=O)[C@H](C)NC(=O)[C@@H](NC(=O)[C@@H](NC(=O)[C@@H](NC(=O)[C@H](Cc1ccc(O)cc1)NC(=O)[C@H](CCC(=O)O)NC(C)=O)[C@@H](C)CC)C(C)C)[C@@H](C)O)C(=O)N[C@@H](Cc1ccc(O)cc1)C(=O)N[C@@H](Cc1ccc(O)cc1)C(=O)N[C@@H](CCC(=O)O)C(=O)N[C@@H](Cc1ccccc1)C(=O)N[C@@H](CCCCN)C(N)=O [JBS3263] (Ac-EYIVTAGWYDYNKDIYYEFK-NH2) | – | 74 ± 12 | 0.000264 | 629000 | 0.4 | 56 ± 6 | – | – | –
6 | JBS3321: tetramer of JBS3319 monomers together with a four arm 10 kD PEG moiety (Ac-EYYVSAGWYDYNTDTYYEFEC-NH2; not fully specified (residue 21); also: tetramer: four chains joined through C-terminal Cys maleimide to a four-arm 10 kD PEG core) | – | 99 ± 6 | – | – | – | 94 ± 12 | – | 3.88e-05 | 1.58e+06
7 | JBS3318: JBS3319 conjugated to 40 kD PEG moiety (Ac-EYYVSAGWYDYNTDTYYEFEC-NH2; not fully specified (residue 21)) | – | 114 ± 8 | – | – | – | 102 ± 20 | not to interact | 0.000213 | 152000
